One assay deals with STK19 (Homo sapiens (Human), UniProt P49842). The assay is described as follows: STK19 kinase inhibitory activity, ADP-Glo kinase assay with NRAS substrate. The format is biochemical. In general terms: ADP-Glo first removes unused ATP, then detects ADP through luciferase.
The next assay concerns WM2032 cells. The format is cell-based, human. Particulars: WM2032, G9a inhibition by A-366. An excerpt: (§1) In addition, the inventors investigated the growth inhibitory effects of IV in melanoma cells with different NRAS and BRAF status, including A375 and UACC62 (NRASWT, BRAFV600E), and SK-MEL-2 and WM2032 (NRASQ61R, BRAFWT).
(§2) To further confirm the pharmacological effects of IV derive from STK19 inhibition and not G9a inhibition, the inventors investigated the role of G9a in NRAS signaling activation. G9a was silenced by G9a-specific shRNA or inhibited by a specific inhibitor, A-366, in SK-MEL-2 and WM2032 melanoma cells. […] In summary, ZT-12-037-01 (IV) is a specific STK19-targeted inhibitor to block oncogenic NRAS-driven melanocyte malignant transformation and melanoma growth.

For another assay, the system named is SK-MEL-2 cells. The format is cell-based, human. Particulars: SK-MEL-2, G9a inhibition by A-366.
Text: as §1, §2

SMILES strings stand for the structures.

From patent publication US11542240B2, “STK19 inhibitors for treatment of cancer” (TRUSTEES OF BOSTON UNIVERSITY, priority 2018, dated 2023) come the findings set out here.

STK19, sequence (P49842 other isoform, or with tags, fused parts or gaps): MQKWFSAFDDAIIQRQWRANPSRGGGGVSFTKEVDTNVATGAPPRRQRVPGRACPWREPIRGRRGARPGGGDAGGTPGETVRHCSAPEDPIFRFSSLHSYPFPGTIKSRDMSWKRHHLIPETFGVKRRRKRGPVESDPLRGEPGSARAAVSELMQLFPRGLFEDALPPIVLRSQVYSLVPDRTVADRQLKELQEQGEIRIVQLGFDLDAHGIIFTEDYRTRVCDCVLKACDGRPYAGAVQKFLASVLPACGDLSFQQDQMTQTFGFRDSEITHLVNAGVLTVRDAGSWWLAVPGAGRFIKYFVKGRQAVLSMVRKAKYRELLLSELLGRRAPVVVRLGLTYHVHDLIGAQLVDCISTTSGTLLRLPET

For orientation: inhibition means the relative decrease from the control value, in per cent. On STK19, `COc1cc2nc(N3CCOCC3)nc(NC3CCN(C(C)C)CC3)c2cc1OC` [Formula XXI] had an inhibition at 10 µM of 59%.

For `COc1cc2c(cc1OCCCN1CCCC1)N=C(N)C21CCC1` [Formula A-366, reference compound], the “inhibitory potential toward STK19” value on STK19 (in vitro kinase assay) is “little inhibitory potential”. Also, the H3K9 methylation levels entry in the assay with WM2032 cells and in the assay on SK-MEL-2 cells was “markedly repressed” each time.
